Experimental data reported in ChEMBL document CHEMBL5614459, “Conformationally Constrained Isoquinolinones as Orally Efficacious Hepatitis B Capsid Assembly Modulators” (ACS Med Chem Lett, 2024).

Assays:
[1] = Intrinsic clearance in mouse liver microsomes; format: ADME, Microsome; conditions: read-out: CLH
[2] = Intrinsic clearance in human liver microsomes; format: ADME, Microsome; conditions: read-out: CLH
[3] = Selectivity index, ratio of CC50 for cytotoxicity against human HepDE19 cells to EC50 for antiviral activity against Hepatitis B virus genotype D infected in HepDE19 cells; format: toxicity, cell-based; conditions: read-out: Ratio CC50/EC50
Hepatitis B virus [4] = assay: Antiviral activity against Hepatitis B virus genotype D infected in HepDE19 cells assessed as inhibition of viral replication by measuring decrease in intracellular rcDNA level by bDNA assay; format: functional, organism-based
[5] = Cytotoxicity against human HepDE19 cells by CellTiter-Glo assay; format: toxicity, cell-based
Cytochrome P450 3A4 = Cytochrome P450 3A4 (Homo sapiens, UniProt P08684); assay: Inhibition of CYP3A4 (unknown origin); format: ADME
Cytochrome P450 2B6 = target: T1, Cytochrome P450 2B6 (Homo sapiens, UniProt P20813); assay: Inhibition of CYP2B6 (unknown origin); format: ADME
T1 sequence (P20813 whole entry): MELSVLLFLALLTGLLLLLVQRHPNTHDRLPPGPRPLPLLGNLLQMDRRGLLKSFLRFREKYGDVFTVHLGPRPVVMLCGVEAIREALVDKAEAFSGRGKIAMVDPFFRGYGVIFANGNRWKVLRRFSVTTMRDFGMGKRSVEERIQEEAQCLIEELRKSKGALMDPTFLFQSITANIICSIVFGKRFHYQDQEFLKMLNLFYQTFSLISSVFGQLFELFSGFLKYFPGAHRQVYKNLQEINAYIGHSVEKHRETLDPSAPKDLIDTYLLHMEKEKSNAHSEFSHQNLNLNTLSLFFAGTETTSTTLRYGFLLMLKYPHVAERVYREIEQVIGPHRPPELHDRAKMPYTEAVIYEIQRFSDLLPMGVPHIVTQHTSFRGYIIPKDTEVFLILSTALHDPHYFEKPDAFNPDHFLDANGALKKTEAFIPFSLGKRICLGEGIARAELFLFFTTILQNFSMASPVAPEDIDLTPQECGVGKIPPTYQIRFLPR

Cytochrome P450 2D6 = Cytochrome P450 2D6 (Homo sapiens, UniProt P10635); assay: Inhibition of CYP2D6 (unknown origin); format: ADME
Cytochrome P450 2C19 = Cytochrome P450 2C19 (Homo sapiens, UniProt P33261); assay: Inhibition of CYP2C19 (unknown origin); format: ADME
[6] = Drug uptake in CD-1 mouse liver at 10 mg/kg, po or 2 mg/kg, iv measured after 24 hrs; format: ADME, organism-based; conditions: read-out: Drug uptake
[7] = AUC(last) in CD-1 mouse at 10 mg/kg, po; format: ADME, organism-based; conditions: in vivo
[8] = Cmax in CD-1 mouse at 10 mg/kg, po; format: ADME, organism-based; conditions: in vivo
[9] = Half life in CD-1 mouse at 10 mg/kg, po; format: ADME, organism-based; conditions: in vivo
Hepatitis B virus [10] = assay: Anti-viral activity against Hepatitis B virus infected in mouse assessed as log10 reduction of HBV DNA levels in serum at 3 mg/kg, po qd for 7 days; format: functional; conditions: time 7 day
Hepatitis B virus [11] = assay: Anti-viral activity against Hepatitis B virus infected in mouse assessed as log10 reduction of HBV DNA levels in serum at 10 mg/kg, po qd for 7 days; format: functional; conditions: time 7 day
Hepatitis B virus [12] = assay: Antiviral activity against Hepatitis B virus genotype D harboring core protein-T33N mutant; format: functional, organism-based
Cytochrome P450 2C9 = Cytochrome P450 2C9 (Homo sapiens, UniProt P11712); assay: Inhibition of CYP2C9 (unknown origin); format: ADME
[13] = Hepatitis B virus, genotype D, HepDE19

Chain of Cytochrome P450 2D6 (P10635 whole entry): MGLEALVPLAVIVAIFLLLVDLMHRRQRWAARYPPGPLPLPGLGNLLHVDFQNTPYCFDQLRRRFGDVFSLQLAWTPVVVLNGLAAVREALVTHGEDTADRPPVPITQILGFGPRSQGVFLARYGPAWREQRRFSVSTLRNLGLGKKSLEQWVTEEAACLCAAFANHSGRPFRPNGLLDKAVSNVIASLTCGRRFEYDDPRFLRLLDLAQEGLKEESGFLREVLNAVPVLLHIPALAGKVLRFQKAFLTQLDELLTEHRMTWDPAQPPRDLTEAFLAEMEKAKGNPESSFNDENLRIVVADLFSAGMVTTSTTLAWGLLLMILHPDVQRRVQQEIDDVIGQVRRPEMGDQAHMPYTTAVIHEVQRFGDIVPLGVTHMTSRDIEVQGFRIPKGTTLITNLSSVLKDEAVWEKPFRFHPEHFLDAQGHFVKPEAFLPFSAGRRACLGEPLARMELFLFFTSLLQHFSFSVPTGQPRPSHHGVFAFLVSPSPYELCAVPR
Chain of Cytochrome P450 2C19 (P33261 whole entry): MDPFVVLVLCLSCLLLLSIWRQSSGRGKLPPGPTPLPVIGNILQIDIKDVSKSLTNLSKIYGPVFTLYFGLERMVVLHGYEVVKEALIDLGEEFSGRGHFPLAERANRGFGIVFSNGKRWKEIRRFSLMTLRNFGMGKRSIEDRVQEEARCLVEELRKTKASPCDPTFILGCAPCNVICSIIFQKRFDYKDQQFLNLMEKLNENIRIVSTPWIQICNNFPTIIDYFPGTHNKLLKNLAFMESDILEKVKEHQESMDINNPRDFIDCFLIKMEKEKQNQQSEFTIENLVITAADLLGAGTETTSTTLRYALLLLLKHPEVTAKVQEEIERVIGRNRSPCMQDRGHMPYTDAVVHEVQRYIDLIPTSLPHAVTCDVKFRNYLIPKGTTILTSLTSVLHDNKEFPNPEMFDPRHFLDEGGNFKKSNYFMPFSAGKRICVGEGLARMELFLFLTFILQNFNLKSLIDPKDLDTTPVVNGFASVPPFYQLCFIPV
Chain of Cytochrome P450 3A4 (P08684 whole entry): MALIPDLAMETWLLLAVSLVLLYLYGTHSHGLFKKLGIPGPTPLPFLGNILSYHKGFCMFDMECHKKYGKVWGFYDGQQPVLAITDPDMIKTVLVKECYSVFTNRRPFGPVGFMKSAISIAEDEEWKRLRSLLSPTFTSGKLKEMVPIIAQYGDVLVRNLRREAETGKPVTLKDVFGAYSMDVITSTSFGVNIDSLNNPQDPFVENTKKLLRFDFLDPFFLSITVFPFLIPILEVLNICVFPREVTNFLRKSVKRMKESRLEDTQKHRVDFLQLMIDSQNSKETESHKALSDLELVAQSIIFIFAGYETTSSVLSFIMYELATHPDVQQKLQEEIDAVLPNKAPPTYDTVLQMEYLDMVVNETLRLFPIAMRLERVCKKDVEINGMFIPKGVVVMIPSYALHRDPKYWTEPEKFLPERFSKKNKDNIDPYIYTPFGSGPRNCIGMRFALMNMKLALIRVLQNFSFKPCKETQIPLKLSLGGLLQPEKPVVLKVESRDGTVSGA
Chain of Cytochrome P450 2C9 (P11712 whole entry): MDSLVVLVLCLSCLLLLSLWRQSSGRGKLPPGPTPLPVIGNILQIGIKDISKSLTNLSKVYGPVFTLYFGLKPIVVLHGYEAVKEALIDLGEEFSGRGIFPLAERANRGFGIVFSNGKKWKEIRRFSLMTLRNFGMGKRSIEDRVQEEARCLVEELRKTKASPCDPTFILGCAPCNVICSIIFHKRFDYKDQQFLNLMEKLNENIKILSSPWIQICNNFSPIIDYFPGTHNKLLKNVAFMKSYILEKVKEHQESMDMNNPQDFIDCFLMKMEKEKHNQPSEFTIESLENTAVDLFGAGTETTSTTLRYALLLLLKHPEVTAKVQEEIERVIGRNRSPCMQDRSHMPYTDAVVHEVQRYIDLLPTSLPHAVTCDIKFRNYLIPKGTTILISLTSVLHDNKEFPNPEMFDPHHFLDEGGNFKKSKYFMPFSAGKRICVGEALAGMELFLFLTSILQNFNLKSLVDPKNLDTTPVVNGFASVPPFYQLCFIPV

SMILES	EC50 (Hepatitis B virus [4]; [13])	selectivity ratio [3]	CC50 [5]	further results
CN(C(=O)Nc1ccc(F)c(Cl)c1)C1CCCc2[nH]c(=O)c3cc(F)c(F)cc3c21 (stereo in doubt; 8)	–	–	–	IC50 (Cytochrome P450 3A4): < 10 µM; EC50 (Hepatitis B virus [4]; hepde19): 0.012 µM; IC50 (Cytochrome P450 2B6): < 10 µM; IC50 (Cytochrome P450 2D6): 4.3 µM; IC50 (Cytochrome P450 2C19): < 10 µM
CN(C(=O)Nc1ccc(F)c(Cl)c1)C1CCc2[nH]c(=O)c3ccccc3c21 (racemic)	0.087 µM	> 1500	> 10 µM	–
CN(C(=O)Nc1ccc(F)c(Cl)c1)C1CCCc2[nH]c(=O)c3ccccc3c21 (stereo in doubt; 2b)	–	–	–	EC50 (Hepatitis B virus [4]; hepde19): 0.045 µM
CN(C(=O)Nc1ccc(F)c(Cl)c1)C1CCCc2[nH]c(=O)c3ccccc3c21 (stereo in doubt)	–	–	–	EC50 (Hepatitis B virus [4]; hepde19): 0.76 µM
CN(C(=O)Nc1ccc(F)c(Cl)c1)C1CCCc2[nH]c(=O)c3cc(F)cc(F)c3c21 (racemic)	0.51 µM	> 1500	> 10 µM	–
CC(C)CN(C(=O)Nc1ccc(F)c(Cl)c1)[C@@H]1CCc2[nH]c(=O)c3ccccc3c21	0.007 µM	> 1500	> 10 µM	–
CN(C(=O)Nc1ccc(F)c(Cl)c1)C1CCCc2[nH]c(=O)c3cc(F)c(F)cc3c21 (stereo in doubt)	–	–	–	EC50 (Hepatitis B virus [4]; hepde19): 1.03 µM
CN(C(=O)Nc1ccc(F)c(C(F)F)c1)[C@@H]1COCc2[nH]c(=O)c3cc(F)c(F)cc3c21	0.006 µM	> 1500	> 10 µM	log(activity) (Hepatitis B virus [10]): 1.68; concentration at 24 h [6]: 135 ng/g; log(activity) (Hepatitis B virus [11]): 2.68; AUC(0-t) [7]: 20800 ng·h/mL; Cmax [8]: 2340 ng/mL; half-life [9]: 2.9 h; EC50 (Hepatitis B virus [12]): 0.227 µM
CN(C(=O)Nc1ccc(F)c(Cl)c1)C1CCCCc2[nH]c(=O)c3ccccc3c21 (racemic)	0.15 µM	> 1500	> 10 µM	–
CN(C(=O)Nc1ccc(F)c(Cl)c1)[C@@H]1CCc2[nH]c(=O)c3ccccc3c21	0.045 µM	> 1500	> 10 µM	–
CN(C(=O)Nc1ccc(F)c(Cl)c1)C1CCCc2[nH]c(=O)c3cc(F)c(F)cc3c21 (racemic)	–	–	> 10 µM	EC50 (Hepatitis B virus [4]; hepde19): 0.019 µM
CN(C(=O)Nc1ccc(F)c(Cl)c1)C1CCCc2[nH]c(=O)c3c(F)c(F)ccc3c21 (racemic)	0.44 µM	> 1500	> 10 µM	–
CN(C(=O)Nc1ccc(F)c(Cl)c1)C1CCCc2[nH]c(=O)c3ccccc3c21 (racemic)	–	> 1500	> 10 µM	EC50 (Hepatitis B virus [4]; hepde19): 0.084 µM
CC(C)CN(C(=O)Nc1ccc(F)c(Cl)c1)C1CCCc2[nH]c(=O)c3ccccc3c21 (racemic)	0.47 µM	> 1500	> 10 µM	–
CN(C(=O)Nc1ccc(F)c(Cl)c1)[C@@H]1CN(CCO)Cc2[nH]c(=O)c3cc(F)c(F)cc3c21	1.36 µM	> 1500	> 10 µM	–
CN(C(=O)Nc1ccc(F)c(Cl)c1)[C@@H]1COCc2[nH]c(=O)c3cc(F)c(F)cc3c21	0.007 µM	> 1500	> 10 µM	microsomal CLint [1]: 27 µL/min/mg; microsomal CLint [2]: 54 µL/min/mg; log(activity) (Hepatitis B virus [10]): 1.04; concentration at 24 h [6]: 150 ng/g; IC50 (Cytochrome P450 3A4): > 15 µM; log(activity) (Hepatitis B virus [11]): 2.86; AUC(0-t) [7]: 6990 ng·h/mL; Cmax [8]: 690 ng/mL; IC50 (Cytochrome P450 2B6): > 15 µM; half-life [9]: 3.1 h; IC50 (Cytochrome P450 2C9): > 15 µM; EC50 (Hepatitis B virus [12]): 0.4 µM; IC50 (Cytochrome P450 2D6): > 15 µM; IC50 (Cytochrome P450 2C19): > 15 µM
CN(C(=O)Nc1ccc(F)c(Cl)c1)C1CCCc2[nH]c(=O)c3cc(F)ccc3c21 (racemic)	0.031 µM	> 1500	> 10 µM	–

More lines, main results first:

EC50 (Hepatitis B virus [4]; [13])	SMILES	selectivity ratio [3]	CC50 [5]	further results
0.011 µM	CN(C(=O)c1cc2cccc(F)c2[nH]1)C1COCc2[nH]c(=O)c3cc(F)c(F)cc3c21 (configuration not stated)	> 1500	> 10 µM	microsomal CLint [1]: 57 µL/min/mg; microsomal CLint [2]: 81 µL/min/mg
0.021 µM	CN(C(=O)Nc1ccc(F)c(Cl)c1)[C@@H]1CSCc2[nH]c(=O)c3cc(F)c(F)cc3c21	> 1500	> 10 µM	microsomal CLint [1]: 112 µL/min/mg; microsomal CLint [2]: 216 µL/min/mg
0.004 µM	CN(C(=O)c1cc2cc(F)ccc2[nH]1)[C@@H]1COCc2[nH]c(=O)c3cc(F)c(F)cc3c21	> 1500	> 10 µM	microsomal CLint [1]: 48 µL/min/mg; microsomal CLint [2]: 95 µL/min/mg
0.009 µM	CN(C(=O)c1cc2ccc(F)cc2[nH]1)[C@@H]1COCc2[nH]c(=O)c3cc(F)c(F)cc3c21	> 1500	> 10 µM	microsomal CLint [1]: 44 µL/min/mg; microsomal CLint [2]: 53 µL/min/mg
0.009 µM	CN(C(=O)Nc1ccc(F)c(Cl)c1)[C@@H]1CNCc2[nH]c(=O)c3cc(F)c(F)cc3c21	> 1500	> 10 µM	microsomal CLint [1]: 23 µL/min/mg; microsomal CLint [2]: 86 µL/min/mg
0.009 µM	CN(C(=O)c1cc2ccccc2[nH]1)[C@@H]1COCc2[nH]c(=O)c3cc(F)c(F)cc3c21	> 1500	> 10 µM	microsomal CLint [1]: 70 µL/min/mg; microsomal CLint [2]: 91 µL/min/mg
0.005 µM	CN(C(=O)c1cc2cc(F)c(F)c(F)c2[nH]1)[C@@H]1COCc2[nH]c(=O)c3cc(F)c(F)cc3c21	> 1500	> 10 µM	microsomal CLint [1]: 20 µL/min/mg; microsomal CLint [2]: 31 µL/min/mg; concentration at 24 h [6]: 3230 ng/g; AUC(0-t) [7]: 15900 ng·h/mL; Cmax [8]: 1080 ng/mL; half-life [9]: 10.8 h
0.008 µM	CN(C(=O)Nc1ccc(F)c(C#N)c1)[C@@H]1COCc2[nH]c(=O)c3cc(F)c(F)cc3c21	> 1500	> 10 µM	concentration at 24 h [6]: 8 ng/g; AUC(0-t) [7]: 4330 ng·h/mL; Cmax [8]: 720 ng/mL; half-life [9]: 2.4 h
0.018 µM	CN(C(=O)Nc1cc(F)c(F)c(F)c1)[C@@H]1COCc2[nH]c(=O)c3cc(F)c(F)cc3c21	> 1500	> 10 µM	–
0.033 µM	CN(C(=O)Nc1ccccc1)[C@@H]1COCc2[nH]c(=O)c3cc(F)c(F)cc3c21	> 1500	> 10 µM	–
0.18 µM	CN1Cc2[nH]c(=O)c3cc(F)c(F)cc3c2[C@H](N(C)C(=O)Nc2ccc(F)c(Cl)c2)C1	> 1500	> 10 µM	–
